Test results from patent US20230220410A1, “PLANTS TOLERANT TO BROAD RANGE OF PATHOGENS” (RAMOT AT TEL-AVIV UNIVERSITY LTD., priority 2020, published 2023).
pIC50: −log10 of the molar value. “Also recorded” adds a separate entry of the source. Where two headings read alike, the source gives them in different places.

Legend:
WT (Col-0) Arabidopsis [1] = assay: Root elongation / root growth-rate inhibition on MS with the substance, wild type; format: in vivo, Arabidopsis thaliana
Description: (§1) The Arabidopsis strains used were all in the Columbia-0 (Col-0) background. The gain of function lines psx00478 and psx08098 containing pBIG2113SF binary vector, expressing a single cDNA under 35S promoter, were ordered from FOX library (Takanari I. et al., 2006. ibid). Transgenic lines were generated using pBINPLUS (van Engelen F A et al., 1995. Transgenic Research 4, 288-290), in which AT2G19750 gene was cloned downstream of the 35S promoter, and transformed to WT Col-0 via Agrobacterium cv3101 mediated transformation. The presence of the transgene was confirmed by PCR with specific primers for S30. Seeds were cultivated in Petri plates using medium containing 0.8% agar, half-strength Murashige and Skoog salts (MS), and 1% sucrose, pH 5.7. The Petri plates were placed in chambers at 22° C. under light/dark conditions of 16 h white light at 75 mol m^2 sec^−1 and 8 h darkness, at 55% relative humidity. For root phenotype experiments, plates were placed vertically in the chambers.
To calculate the percentage of growth inhibition, seeds were germinated on MS containing the following concentrations of I3C: 0, 50, 100, 200, 300, 400, 500 and 750 μM. The root length of the seedlings was measured at days 3, 4, 5, 7 and 10. To calculate the percentage of growth inhibition, the slope of the regression lines for each concentration was used in the next equation: […]
To calculate the degree of tolerance to I3C, growth rates of WT and the I3CT1 strains were determined for increasing concentrations of I3C. Root length was measured at several time points over increasing I3C concentrations (FIG. 3). The growth rate of the WT and the I3CT1 transgenic lines was similar on MS; however, a growth rate of 3 and 2.3 times faster was observed on 400 μM I3C for the transgenic lines I3CT1^2 and I3CT1^8098 respectively. […] However, the growth rate of the WT was inhibited by 50% at about 50 μM while the growth rate of the I3CT1^2 and I3CR1^8098 transgenic lines was inhibited by 50% only when the I3C concentration was 300 μM and 200 μM respectively.
(§2) To test if overexpression of S30 causes tolerance specifically to I3C, or rather causes general tolerance to external chemical stress, root growth was tested with the addition of three groups of molecules to the growth medium: two subcategories of indole derivates: 1. Breakdown products of indol-3-acetaldoxime such as I3C, indol-3-acetic acid (IAA), and 3—Indoleacetonitril (IAN); and 2. breakdown products of I3C such as 3, 3Diindolylmethane (DIM), indole-3-carboxaldehyde (I3xA), and methyl Indole 3-carboxylate (MI3Cx). The third group contains benzoxazinoids: 2-Benzoxazolinon (BOA) and 6-Methoxy-2-benzoxazolinone (mBOA). Benzoxanoids are chemically unrelated to I3C, but with similar function of plant defense in gramineae (FIG. 4A). WT and the I3CT1 transgenic strains were assayed for root growth on 50% and 90% inhibition concentrations (IC) of the above molecules (Table 3).

I3CT1 transgenic strains = assay: Root growth of I3CT1 on 50% and 90% inhibition concentrations of plant defense molecules; format: in vivo, Arabidopsis thaliana; details: FIG. 4B
Procedure: FIG. 4A: Plant defense molecules assayed: Breakdown products of indol-3-acetaldoxime (upper left panel), Breakdown products of I3C (lower panel), and benzoxazinoids (right panel). FIG. 4B: I3CT1 and WT were grown on 50% and 90% inhibition concentrations of the chemicals shown in μM. Data represent mean±SE.
as §2

[2] = test system: I3CT1^2 transgenic line (S30 overexpressing); assay: Root growth-rate inhibition by I3C, transgenic line I3CT1^2; format: in vivo, Arabidopsis thaliana; details: I3CT1^2, root growth rate
Description: as §1, with “For root phenotype experiments, plates were placed vertically in the chambers.” left out
(§3) To calculate the percentage of growth inhibition, seeds were germinated on MS containing the following concentrations of I3C: 0, 50, 100, 200, 300, 400, 500 and 750 μM. The root length of the seedlings was measured at days 3, 4, 5, 7 and 10. […]
(§4) To calculate the degree of tolerance to I3C, growth rates of WT and the I3CT1 strains were determined for increasing concentrations of I3C. Root length was measured at several time points over increasing I3C concentrations (FIG. 3). […]

[3] = test system: I3CT1^8098 transgenic line (S30 overexpressing); assay: Root growth-rate inhibition by I3C, transgenic line I3CT1^8098; format: in vivo, Arabidopsis thaliana; details: I3CT1^8098 (printed I3CR1^8098)
Description: as §1, with “For root phenotype experiments, plates were placed vertically in the chambers.” left out
as §3, §4

WT (Col-0) Arabidopsis [4] = assay: Root length on I3C, IAA and mixtures (auxin antagonism), WT; format: in vivo, Arabidopsis thaliana
Procedure: I3CT1^2, I3CT1^8098 (FIG. 10A, designated as ICT1) and WT (FIG. 10B) plants were grown on three concentrations of I3C (50, 200, 500 μM), three concentrations of IAA (50, 200, 500 nM) and mixtures between the two. Root length was measured, and the mean root length of the transgenic lines I3CT1^2, I3CT1^8098 was calculated (presented as “I3CT1”). Three-way ANOVA was performed after SQRT transformation to obtain a normal distribution. FIG. 10C: The model of inhibition.
It was previously shown that I3C acts as an auxin antagonist on TIR1 (Katz et al., 2015b, ibid).

WT (Col-0) Arabidopsis [5] = details: 400 μM I3C; cited from earlier work
[6] = Arabidopsis thaliana, root elongation, Table 3, read-out: substance concentration inhibiting root elongation by 50%
[7] = read-out: I3C concentration at which growth rate was inhibited by 50%
[8] = root elongation, Table 3, read-out: substance concentration inhibiting root elongation by 50%

SMILES | substance concentration inhibiting root elongation by 90% (WT (Col-0) Arabidopsis [1]; root elongation, Table 3) [µM] | tolerance of I3CT1 to the chemical (root growth) (I3CT1 transgenic strains) | pIC50 (WT (Col-0) Arabidopsis [1]; [6]) | pIC50 (WT (Col-0) Arabidopsis [1]; [8]) | also measured
O=c1[nH]c2ccccc2o1 [BOA, 2-Benzoxazolinon] | 400 | – | – | – | pIC50 (WT (Col-0) Arabidopsis [1]; Arabidopsis thaliana, read-out: substance concentration inhibiting root elongation by 50%): 4.30
c1ccc2c(Cc3c[nH]c4ccccc34)c[nH]c2c1 [DIM, 3,3′-Diindolylmethane] | 200 | tolerance of the I3CT1 line was limited to three chemicals | 4.22 | – | –
OCc1c[nH]c2ccccc12 [I3C, Indole 3-carbinol] | 400 | tolerance of the I3CT1 line was limited to three chemicals | – | 4.00 | I3C concentration of 90% inhibition [2]: 750 µM; pIC50 [2, 7]: 3.52; I3C concentration of 90% inhibition [3]: 500 µM; pIC50 [3, 7]: 3.70; inhibition of root elongation by I3C itself (WT (Col-0) Arabidopsis [4]; 500 μM I3C): 95%; rescue of IAA root-elongation inhibition by I3C (WT (Col-0) Arabidopsis [4]; 50 and 200 μM I3C added to IAA, WT): rescues the IAA phenotype; inhibition of root elongation (WT (Col-0) Arabidopsis [5]): 95%; I3C concentration of 90% inhibition (WT (Col-0) Arabidopsis [1]; WT, root growth rate): 400 µM; pIC50 (WT (Col-0) Arabidopsis [1]; WT, root growth rate, read-out: I3C concentration at which growth rate was inhibited by 50%): ~4.30; I3C concentration of maximum inhibition (WT (Col-0) Arabidopsis [1]; all strains (WT and I3CT1 lines)): 750 µM
O=Cc1c[nH]c2ccccc12 [I3xA, Indole 3-Carboxalldehyde] | 300 | did not exhibit any pronounced tolerance | – | 3.85 | –
O=C(O)Cc1c[nH]c2ccccc12 [IAA, Indole-3-acetic acid] | 200 | tolerance of the I3CT1 line was limited to three chemicals; also recorded: slight tolerance | 4.30 | – | –
N#CCc1c[nH]c2ccccc12 [IAN, Indole 3-acetonitril] | 160 | did not exhibit any pronounced tolerance | – | 4.30 | –
COC(=O)c1c[nH]c2ccccc12 [MI3Cx, Methyl Indole 3-Carboxylate] | 375 | did not exhibit any pronounced tolerance | 3.70 | – | –
COc1ccc2[nH]c(=O)oc2c1 [mBOA, 6-Methoxy-2-benzoxazolinone] | 400 | – | 4.30 | – | –
